Results on two compounds are retold here after paper PMC8753592, “Long-acting capsid inhibitor protects macaques from repeat SHIV challenges” (Nature, 2021).

For data set [1], the system named is SHIV-SF162P3. As to the kind of experiment: microbe, parasite or virus in culture. The data set is classed as cell-based, SHIV (in rhesus macaque, Macaca mulatta, PBMCs). As for the experimental part: Freshly isolated PBMCs from three male rhesus macaque (M. mulatta) donors of Indian origin (HumanCells Biosciences) were cultured in RPMI-1640 cell culture medium (Life Technologies) supplemented with 10% heat-inactivated FBS (Hyclone), 2 mM glutamine and 100 U ml^−1 penicillin plus 100 μg ml^−1 streptomycin (complete RPMI). Before their use in the antiviral assays, rhesus PBMCs from three independent donors were pooled and activated at a density of 3 × 10^6 cells per ml for 72 h at 37 °C by the addition of 1 μg ml^–1 phytohemagglutinin (PHA, Sigma-Aldrich) and 50 U ml^−1 recombinant human interleukin-2 (IL-2) (Roche Diagnostics).
PHA/IL-2-stimulated rhesus PBMCs were infected in bulk culture with SHIV-SF162P3 at a concentration of 130 pg of p27 equivalent per million PBMCs. The cells were maintained in suspension by gently rocking the cultures mixed with virus inoculum for 3 h at 37 °C. The cells were then pelleted by centrifugation at 500g for 5 min, washed twice with complete RPMI to remove any unadsorbed virus and seeded into 96-well plates at a cell density of 2 × 10^5 cells per well in 100 μl. […] The cultures were incubated in a 5% CO2 incubator at 37 °C for 7 days. Cell-free supernatants derived from the PBMC cultures were harvested 7 days after infection, the amount of SHIV present was quantified using an SIV p27 antigen-capture ELISA assay (5436, Advanced Bioscience Laboratories) performed according to the manufacturer’s protocol, and the data were acquired using SoftMax Pro 6.3.1 software (Molecular Devices).

The conditions of data set [2]: ref Link et al, Nature, 2020;[16]; cited from earlier work.
Data set [3] has as its target CA precursor (Gag polyprotein). The settings on record: ref Link et al, Nature, 2020;[16]; read-out: Binding Affinity (KD), CA precursor (Gag polyprotein); cited from earlier work.
For data set [4] the following is noted: ref Link et al, Nature, 2020;[16]; cited from earlier work. This is another data set of the same source.
The target in data set [5] is CA pentamer. The settings on record: ref Link et al, Nature, 2020;[16]; read-out: Binding Affinity (KD), CA pentamer; cited from earlier work.
For data set [6] the following is noted: ref Link et al, Nature, 2020;[16], cited from earlier work.
For data set [7], the target named is CA monomer. Conditions: ref Link et al, Nature, 2020;[16]; read-out: Binding Affinity (KD), CA monomer; cited from earlier work.
In data set [8] the test system is CA mutant N74D. The settings on record: ref Link et al, Nature, 2020;[16]; cited from earlier work.
For data set [9], the system named is CA mutant M66I. Conditions: ref Link et al, Nature, 2020;[16]; cited from earlier work.
Data set [10] has as its system HIV capsid. The settings on record: ref Link et al, Nature, 2020;[16]; cited from earlier work.
The conditions of data set [11]: in vivo, sc; cited from earlier work.
In data set [12] the test system is HIV-1 isolates. The settings on record: ref Link et al, Nature, 2020;[16]; read-out: EC50, human PBMCs, HIV-1 isolates; cited from earlier work.
The subject of data set [13] is CA mutant L56I. The settings on record: ref Link et al, Nature, 2020;[16]; cited from earlier work.
Data set [14] relates to HIV-1. The settings on record: cited from earlier work; for average LEN plasma concentration as multiple of human paEC95: 9 days after dose administration.
Data set [15] concerns the target CA hexamer. Conditions: ref Link et al, Nature, 2020;[16]; read-out: Binding Affinity (KD), CA hexamer; cited from earlier work.
The mark [16] stands for this setting: single experiments n1–n7, SIV p27 ELISA day 7, read-out: SHIV162P3-rhPBMC-EC50, individual experiments.

Values joined by “and” are separate entries in the source; they are usually repeats but may differ in a detail not shown here. Equal values may be shown once. Read-outs that look alike come from different tables or passages of the source.

A word on the EC50: it is the midpoint of the concentration-response curve. By Kd is commonly meant the equilibrium constant for the complex coming apart.

As to `O=C(NCc1c(F)cc(F)cc1F)c1cn2c(c(O)c1=O)C(=O)N1[C@H]3CC[C@H](C3)O[C@@H]1C2` [BIC, reference compound], the concentration giving a half-maximal response (EC50) was 1.34 nM in [1] (mean of 7 assays, SIV p27 ELISA day 7 post-infection, read-out: EC50, rhesus PBMCs, SHIV-SF162P3); 0.78 nM and 0.9 nM and 1.77 nM and 1.85 nM and 0.55 nM and 1.25 nM and 2.26 nM in data set [1] (setting [16]).

`CC(C)(C#Cc1ccc(-c2ccc(Cl)c3c(NS(C)(=O)=O)nn(CC(F)(F)F)c23)c([C@H](Cc2cc(F)cc(F)c2)NC(=O)Cn2nc(C(F)(F)F)c3c2C(F)(F)[C@@H]2C[C@H]32)n1)S(C)(=O)=O` [LEN, Lenacapavir, reference compound]: in data set [2], the “T1/2, human cryopreserved hepatocytes” value is 202 h. Further, the equilibrium dissociation constant (Kd) was 1.1 nM in [3], 0.22 nM in data set [5], 2.5 nM in data set [7] and 0.24 nM in data set [15]. In addition, the “Predicted Hepatic Clearance, rate, primary human hepatocytes” value in [4] is 0.17 mL/min/kg. For the same compound, the half-maximal effective concentration (EC50) is 0.39 nM in data set [1] (Simian immunodeficiency virus, PBMC, in Macaca mulatta, 168 h, read-out: EC50, rhesus PBMCs, SHIV-SF162P3, mean of 7 assays, SIV p27 ELISA day 7 post-infection); 0.37 nM and 0.26 nM and 0.49 nM and 0.27 nM and 0.69 nM and 0.43 nM in [1] (read-out: SHIV162P3-rhPBMC-EC50, individual experiments, single experiments n1–n7, SIV p27 ELISA day 7); 0.23 nM in data set [1] (setting [16]); 0.05 nM in [12]. The “Kinetic solubility at pH 2.0” value in data set [6] (pH 2.0) was <1, <1 μM. Further, the “Kinetic solubility at pH 7.4” value in data set [6] (pH 7.4) is <1, <1 μM. Further, the “In vitro fold-resistance (CA mutant/wild-type), N74D” value in [8] was 22. Further, in data set [9], the “In vitro fold-resistance (CA mutant/wild-type), M66I” value is recorded as >3,200. Moreover, the “Inhibits nuclear import (early-stage)” value in data set [10] is “Yes”. Further, the “Inhibits proper capsid assembly (late-stage)” value in [10] is “Yes”. For the same compound, in data set [10], the “Inhibits virus production (late-stage)” value was “Yes”. For the same compound, the “duration of mean exposure of more than six times human paEC95” value in data set [11] is “at least 6 months”. In data set [13], the “In vitro fold-resistance (CA mutant/wild-type), L56I” value was 239. Moreover, the results for the “average LEN plasma concentration as multiple of human paEC95” value in data set [14] (20 mg dose) and in data set [14] (50 mg dose) were 0.7 times the human paEC95 and 1.1 times the human paEC95, respectively. Also, in data set [14] (long-acting LEN monotherapy, phase 1b), the “participants with capsid mutation Q67H detected” value is 2 of 29. In data set [14] (long-acting formulation, after 9 days of monotherapy), the “maximum decline in HIV-1 RNA” value is recorded as 2.3 log10.
